Laboratory results from patent US20230148599A1, “FUNGICIDAL MIXTURES CONTAINING PYRAZOLE DERIVATIVES” (FMC Corporation, priority 2020, published 2023).

How the values were obtained:
Format in all cases: in vivo
Conditions in all cases: 50 ppm, 100 = 100% disease control, 0 = no control
Septoria tritici = assay: Test A: wheat leaf blotch, preventive spray on wheat seedlings
In short: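 Wheat seedlings sprayed to run-off with compound suspended in acetone/water with 250 ppm PEG400 surfactant, inoculated next day with Septoria tritici spores. Held 48 h saturated at 24 °C, then 17 days at 20 °C; disease rated 0–100% control relative to controls.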

[1] = tested on: Puccinia recondita f. sp. tritici; assay: Test B: wheat leaf rust, preventive spray on wheat seedlings
In short: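 Wheat seedlings were sprayed to run-off with compound suspended at ppm concentrations in acetone/water containing 250 ppm PEG400. The next day they were inoculated with Puccinia recondita f. sp. tritici spores, held saturated at 20 °C for 24 h, then kept 7 days at 20 °C. Disease control was rated 0–100% relative to untreated controls.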

[2] = tested on: Blumeria graminis f. sp. tritici; assay: Test C: wheat powdery mildew, preventive spray on wheat seedlings
In short: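 Seedlings were sprayed to run-off with compound suspended (ppm) in 50/50 acetone–water containing 250 ppm PEG400, then spore-dust inoculated the following day. After 8 days at 20° C, disease control was rated visually from 0 to 100 against controls.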

Phakopsora pachyrhizi = assay: Test D: Asian soybean rust, preventive spray on soybean seedlings
In short: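 Compounds in acetone/water (50/50) with 250 ppm PEG400, dosed in ppm, sprayed to run-off on soybean seedlings; inoculated with P. pachyrhizi spores next day. Held 24 h at 22 °C in saturated air, then 8 days at 22 °C; visual rating of disease control, 0–100, relative to untreated controls.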

Botrytis cinerea = assay: Test E: tomato Botrytis, preventive spray on tomato seedlings
In short: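 Compound suspended in 50/50 acetone/water with 250 ppm PEG400 surfactant and sprayed to run-off on tomato seedlings; Botrytis cinerea spores applied the next day. Incubation 48 h at 20° C in saturated atmosphere, then 3 days at 24° C. Visual rating 0–100% disease control relative to controls.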

Alternaria solani = assay: Test F: tomato early blight, preventive spray on tomato seedlings
In short: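 Tomato seedlings were sprayed to run-off with compound suspended in acetone/water (50/50) with 250 ppm PEG400 and inoculated with Alternaria solani spores the next day. Plants were held 48 h at 27 °C in saturated humidity, then 3 days at 20 °C. Disease control was rated visually from 0 to 100 against untreated controls.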

Row | SMILES | Test A disease control rating (Septoria tritici) [%] | Test B disease control rating [1] [%] | Test C disease control rating [2] [%] | Test D disease control rating (Phakopsora pachyrhizi) [%] | Test E disease control rating (Botrytis cinerea) [%] | Test F disease control rating (Alternaria solani) [%]
1 | Cc1nn(C)c(Nc2ccccc2[N+](=O)[O-])c1-c1c(F)cccc1F [compound 135] | 100 | 68 | 93 | 0 | 99 | 0
2 | Cc1nn(C)c(Nc2ccccc2[N+](=O)[O-])c1-c1c(F)cccc1Cl [compound 136] | 100 | 80 | 88 | 0 | 99 | 0
3 | CCc1nn(C)c(Nc2c(F)cc(C)cc2[N+](=O)[O-])c1-c1ccc(F)cc1Cl [compound 137] | 100 | 100 | 100 | 91 | 99 | 99
4 | COc1cc(F)c(Nc2c(-c3ccc(Cl)cc3Cl)c(C)nn2C)c([N+](=O)[O-])c1 [compound 138] | 100 | 100 | 93 | 67 | 99 | 100
5 | Cc1nn(C)c(Nc2ccccc2[N+](=O)[O-])c1-c1ccc(F)cc1Br [compound 139] | 98 | 86 | 76 | 0 | 100 | 33
6 | COc1ccc(-c2c(C)nn(C)c2Nc2ccccc2[N+](=O)[O-])c(Cl)c1 [compound 140] | 99 | 86 | 31 | 0 | 100 | 93
7 | COc1cc(Cl)c(Nc2c(-c3ccc(F)cc3F)c(C)nn2C)c([N+](=O)[O-])c1 [compound 141] | 99 | 100 | 99 | 0 | 99 | 83
8 | COc1ccc(Nc2c(-c3ccc(Cl)cc3Cl)c(C)nn2C)c([N+](=O)[O-])c1 [compound 142] | 100 | 91 | 39 | 25 | 99 | 80
9 | Cc1cc(F)c(Nc2c(-c3ccc(Cl)cc3Cl)c(C)nn2C)c([N+](=O)[O-])c1 [compound 143] | 99 | 100 | 96 | 87 | 99 | 100
10 | Cc1cccc([N+](=O)[O-])c1Nc1c(-c2ccc(Cl)cc2Cl)c(C)nn1C [compound 144] | 100 | 68 | 35 | 69 | 0 | 0
11 | Cc1cc(Cl)c(Nc2c(-c3ccc(Cl)cc3Cl)c(C)nn2C)c([N+](=O)[O-])c1 [compound 145] | 98 | 92 | 52 | 0 | 85 | 24
12 | Cc1nn(C)c(Nc2c(Cl)cc(Cl)cc2[N+](=O)[O-])c1-c1ccc(Cl)cc1Cl [compound 146] | 97 | 98 | 0 | 0 | 0 | 40
13 | COc1cc(F)c(-c2c(C)nn(C)c2Nc2ccccc2[N+](=O)[O-])c(F)c1 [compound 147] | 96 | 86 | 97 | 0 | 100 | 99
14 | Cc1nn(C)c(Nc2ccccc2[N+](=O)[O-])c1-c1c(F)cc(F)cc1Cl [compound 148] | 100 | 99 | 98 | 13 | 99 | 100
15 | Cc1nn(C)c(Nc2ccccc2[N+](=O)[O-])c1-c1c(F)cc(F)cc1F [compound 149] | 100 | 80 | 97 | 0 | 99 | 96
16 | COc1ccc(Nc2c(-c3c(F)cc(C#N)cc3F)c(C)nn2C)c([N+](=O)[O-])c1 [compound 150] | 100 | 100 | 98 | 13 | 100 | 99
17 | Cc1nn(C)c(Nc2c(F)cccc2[N+](=O)[O-])c1-c1c(F)cc(Cl)cc1F [compound 151] | 100 | 100 | 99 | 0 | 99 | 99
18 | Cc1nn(C)c(Nc2c(Cl)cccc2[N+](=O)[O-])c1-c1c(F)cc(F)cc1Cl [compound 152] | 99 | 100 | 98 | 91 | 99 | 92
19 | Cc1cccc([N+](=O)[O-])c1Nc1c(-c2c(F)cc(F)cc2Cl)c(C)nn1C [compound 153] | 99 | 100 | 99 | 73 | 99 | 72
20 | Cc1nn(C)c(Nc2ccccc2[N+](=O)[O-])c1-c1c(F)cc(F)cc1Br [compound 154] | 99 | 80 | 98 | 0 | 99 | 51
21 | Cc1nn(C)c(Nc2c(F)cc(Br)cc2[N+](=O)[O-])c1-c1ccc(C#N)cc1Cl [compound 155] | 99 | 99 | 90 | 0 | 100 | 93
